# From article PMC9733060, “Novel alendronate-CGS21680 conjugate reduces bone resorption and induces new bone formation in post-menopausal osteoporosis and inflammatory osteolysis mouse models” (Arthritis Research & Therapy, 2022)
# Read-outs that look alike come from different tables or passages of the source. Marks after values point to notes of the source that are not given here.
# Columns and labels:
# [1] = test system: human primary osteoclasts; set-up: method as in PMID 23647065, PMID 25573752; details: previously demonstrated; cited from earlier work
# [2] = test system: ovariectomy-induced osteoporotic mice; format: in vivo; details: μCT, mean ± SEM, 10 mg/kg weekly IP, 9 weeks
# [3] = test system: human primary osteoclasts; assay: human primary osteoclast differentiation (RANKL, TRAP staining); format: cell-based; details: 0.001-10 μM, 7 days, 30 ng/mL RANKL
# Protocol: Human bone marrow was obtained from 4 OA patients who underwent hip replacement surgery and all protocols were approved by the NYU School of Medicine’s IRB. Precursor cells were flushed out from femoral head with DMEM media with 10% fetal bovine serum (FBS), and 100 U/ml of penicillin and streptomycin (Lonza, Belgium) in sterile conditions and incubated for 48h non-adherent cells were collected and differentiated to osteoclasts and adherents cell were differentiated to osteoblasts as previously described.
# Osteoclast differentiation was assessed by TRAP staining by incubating PFA fixed samples with TRAP buffer (0.1M acetate buffer, 0.3M sodium tartrate, 10mg/ml Naphthol AS-MX phosphate, 0.1% Triton X-100, 0.3mg/ml Fast Red Violet LB (Sigma-Aldrich, St. Louis, MO, USA)) for 10 min. Images were taken in a Leica (Morrisville, NC, USA) inverted microscope.
# [4] = cited from earlier work
# [5] = test system: UHMWPE-induced osteolytic mice (WT); assay: UHMWPE wear particle-induced osteolysis (OL) in WT mice calvaria; format: in vivo, mouse; details: doses <10mg/kg/week, data not shown
smiles,measurement,setting,value
Nc1nc(NCCc2ccc(O)cc2)nc2nc(-c3ccco3)nn12 [ZM21385],effect on osteoclast differentiation,[1],increases osteoclast differentiation
"NCCCC(O)(P(=O)(O)O)P(=O)(O)O [Alendronate, alendronic acid]",BS/BV,[2]; L5 vertebra trabecular bone,71.26 ± 2.80* 1/mm
same,BV/TV,[2]; L5 vertebra trabecular bone,12.34 ± 0.74 %
same,Tb.N,[2]; L5 vertebra trabecular bone,2.60 ± 0.21 * 1/mm
same,Tb.Pf,[2]; L5 vertebra trabecular bone,13.73 ± 1.23 # 1/mm
same,Tb.Sp,[2]; L5 vertebra trabecular bone,0.298 ± 0.012 μm
same,Tb.Th,[2]; L5 vertebra trabecular bone,0.047 ± 0.002 μm
same,BV,[2]; femur cortical bone,0.442 ± 0.014 * mm^3
same,BV/TV,[2]; femur cortical bone,44.50 ± 1.03
same,TV,[2]; femur cortical bone,0.994 ± 0.042 mm^3
same,BS/BV,[2]; femur trabecular bone,89.18 ± 4.61 1/mm
same,BV/TV,[2]; femur trabecular bone,0.771 ± 0.210 %
same,Tb.N,[2]; femur trabecular bone,0.164 ± 0.043 # 1/mm
same,Tb.Pf,[2]; femur trabecular bone,37.43 ± 2.48 1/mm
same,Tb.Sp,[2]; femur trabecular bone,0.702 ± 0.100 # μm
same,Tb.Th,[2]; femur trabecular bone,0.0468 ± 0.0014 μm
same,inhibition of osteoclast differentiation (anti-osteoclastogenic properties),[3],more potent than AlenP
same,time for kidneys to excrete the amount not taken up by bone tissues,[4],≤ 24 h
same,elimination from bone tissue,[4]; humans,up to 12 years
"CCNC(=O)[C@H]1O[C@@H](n2cnc3c(N)nc(NCCc4ccc(CCC(=O)O)cc4)nc32)[C@H](O)[C@@H]1O [CGS21680, 2-[p-(2-carboxyethyl)-phenethylamino]-5'-N-ethylcarboxamido adenosine]",effect on bone density in the affected areas,[5],none of the doses tested <10mg/kg/week had any effect on bone density
